Assay results taken from PMC3523469 (Investigational New Drugs, 2012).
Like-named read-outs stand apart in the source and are kept apart here.

Format: in vivo, Japanese patients
[1] = across all dose levels, 13 patients

## COc1cc2ncnc(Nc3ccc(F)c(Cl)c3)c2cc1NC(=O)/C=C/CN1CCCCC1 [dacomitinib, Dacomitinib]
45 mg QD (n = 7), G3
  Alanine aminotransferase increased, number of patients with treatment-related AE: 1
  Aspartate aminotransferase increased, number of patients with treatment-related AE: 1
  Blood bilirubin increased, number of patients with treatment-related AE: 1
  Cheilitis, number of patients with treatment-related AE: 0
  Conjunctivitis, number of patients with treatment-related AE: 0
  Decreased appetite, number of patients with treatment-related AE: 1
  Diarrhea, number of patients with treatment-related AE: 0
  Dry skin, number of patients with treatment-related AE: 0
  ECG QT prolonged, number of patients with treatment-related AE: 0
  Edema, number of patients with treatment-related AE: 0
  Fatigue, number of patients with treatment-related AE: 0
  Hematuria, number of patients with treatment-related AE: 0
  Hypertrichosis, number of patients with treatment-related AE: 0
  Leukopenia, number of patients with treatment-related AE: 0
  Nausea, number of patients with treatment-related AE: 0
  Palmar–plantar erythrodysesthesia, number of patients with treatment-related AE: 0
  Paronychia, number of patients with treatment-related AE: 0
  Proteinuria, number of patients with treatment-related AE: 0
  Rash, number of patients with treatment-related AE: 2
  Skin fissures, number of patients with treatment-related AE: 0
  Stomatitis, number of patients with treatment-related AE: 0
  Weight decreased, number of patients with treatment-related AE: 0
45 mg dosing cohort
  device-related infection, treatment-related grade 3 AE, number: 1
  treatment-related grade 3 AEs, number: seven
15, 30, 45 mg QD, single dose to day 21 of cycle 1, 12 patients evaluated
  Dose-limiting toxicity (DLT): no DLTs observed at any dose
Japanese patients with advanced solid tumors
  clinically recommended phase II dose (RP2D): 45 mg QD
Total (N = 13)
  Alanine aminotransferase increased, % of patients with treatment-related AE: 15%
  Alanine aminotransferase increased, number of patients with treatment-related AE: 2
  Aspartate aminotransferase increased, % of patients with treatment-related AE: 15%
  Aspartate aminotransferase increased, number of patients with treatment-related AE: 2
  Blood bilirubin increased, % of patients with treatment-related AE: 15%
  Blood bilirubin increased, number of patients with treatment-related AE: 2
  Cheilitis, % of patients with treatment-related AE: 38%
  Cheilitis, number of patients with treatment-related AE: 5
  Conjunctivitis, % of patients with treatment-related AE: 31%
  Conjunctivitis, number of patients with treatment-related AE: 4
  Decreased appetite, % of patients with treatment-related AE: 23%
  Decreased appetite, number of patients with treatment-related AE: 3
  Diarrhea, % of patients with treatment-related AE: 92%
  Diarrhea, number of patients with treatment-related AE: 12
  Dry skin, % of patients with treatment-related AE: 61.5%
  Dry skin, number of patients with treatment-related AE: 8
  ECG QT prolonged, % of patients with treatment-related AE: 15%
  ECG QT prolonged, number of patients with treatment-related AE: 2
  Edema, % of patients with treatment-related AE: 15%
  Edema, number of patients with treatment-related AE: 2
  Fatigue, % of patients with treatment-related AE: 46%
  Fatigue, number of patients with treatment-related AE: 6
  Hematuria, % of patients with treatment-related AE: 15%
  Hematuria, number of patients with treatment-related AE: 2
  Hypertrichosis, % of patients with treatment-related AE: 15%
  Hypertrichosis, number of patients with treatment-related AE: 2
  Leukopenia, % of patients with treatment-related AE: 23%
  Leukopenia, number of patients with treatment-related AE: 3
  Nausea, % of patients with treatment-related AE: 23%
  Nausea, number of patients with treatment-related AE: 3
  Palmar–plantar erythrodysesthesia, % of patients with treatment-related AE: 38%
  Palmar–plantar erythrodysesthesia, number of patients with treatment-related AE: 5
  Paronychia, % of patients with treatment-related AE: 69%
  Paronychia, number of patients with treatment-related AE: 9
  Proteinuria, % of patients with treatment-related AE: 23%
  Proteinuria, number of patients with treatment-related AE: 3
  Rash, % of patients with treatment-related AE: 100%
  Rash, number of patients with treatment-related AE: 13
  Skin fissures, % of patients with treatment-related AE: 15%
  Skin fissures, number of patients with treatment-related AE: 2
  Stomatitis, % of patients with treatment-related AE: 61.5%
  Stomatitis, number of patients with treatment-related AE: 8
  Weight decreased, % of patients with treatment-related AE: 23%
  Weight decreased, number of patients with treatment-related AE: 3
[1]
  diarrhea, all-causality AE, number of patients: 12
  dry skin, all-causality AE, number of patients: 8
  paronychia, all-causality AE, number of patients: 9
  rash, all-causality AE, number of patients: 13
  stomatitis, all-causality AE, number of patients: 8
All cohorts, all cycles
  grade 4 or 5 treatment-related adverse events: ^aThere were no grade 4 or 5 treatment-related adverse events
All dose levels
  grade 4 AEs: No grade 4 AEs were reported
All in the 45 mg dosing cohort
  patients requiring temporary discontinuations due to TRAEs, number: five
One patient, 15 mg cohort, day 1 cycle 1, grade 1
  prolonged QTcF interval, change from baseline: 26 ms
overall
  treatment-related grade 3 AEs, number: eight
single-dose administration phase
  AEs observed in ≥1 patient during the single-dose administration phase: rash and diarrhea
